Test results: patent US9738668B2
“Also recorded” adds a separate entry of the source.

Experiments:
[1] = tested on: brain mitochondria; test: Mitochondria swelling assay in response to Ca2+; parameters: species or system mice; conditions: for calcium-mediated mitochondrial swelling: with calcium
Experimental: Brain from mice without white matter was used for mitochondrial isolation. Brain was homogenized in 9 ml of ice-cold EB buffer (1 mmol EDTA, 1-6 mg/ml BSA) using a Dounce homogenizer until no particles could be seen. Homogenates were centrifuged at 1300×g for 5 minutes. Supernatant from this fraction was carefully laid on top of a 15% PERCOLL solution (10 ml) and then centrifuged at 16000 RPM for 10 minutes. The pellet was carefully mixed with 9 ml of mitochondrial buffer (4.098% D-mannitol, 2.56% sucrose, 0.034% K2HPO4, pH 7.3-7.4) and 200 μl of 1% digitonin. After 5 minutes incubation on ice, the mixture was centrifuged at 8000 RPM for 10 minutes. Mitochondrial pellet was washed once with mitochondrial buffer. Subsequently, the mitochondrial pellet was resuspended in 100 μl of mitochondrial buffer and was used for further experiments.
A proper amount of mitochondria was resuspended into 1 ml swelling assay buffer (150 mM KCl, 2 mM KH2PO4, 10 mM HEPES, pH 7.4) and energized by 1 mM glutamate and 1 mM malate. Calcium at varying concentrations was added into the assay buffer to trigger mitochondrial swelling. Mitochondrial permeability transition was determined by studying the rate of change in absorbance at 540 nm via a spectrophotometer.
Given that the Compounds 4, 8 and 15 could inhibit ABAD activity, it was determined whether these same compounds could decrease mitochondrial permeability transition pore (mPTP) formation.

[2] = tested on: SK-N-SH cells; test: Mitochondrial cytochrome c oxidase (CcO) activity in Aβ-treated cells; assay type: cell-based; conditions: for CcO activity, inhibitor alone: 1 μM inhibitor without Aβ; for CcO activity: 5 μM oligomer Aβ1-42 plus 1 μM inhibitor, 48 hours
Experimental: SK-NSH cells were treated with 5 μM oligomer Aβ plus 1 μM of ABAD inhibitor; inhibitor alone; vehicle (VEH) without inhibitor; or Aβ alone. Forty-eight hour later, CcO activity (μmol protein mg^−1 min^−1) was measured in cell lysates.
The CcO activity was measured according to known methods (Du, et al. (2008) Nat. Med. 14:1097-105) with a cytochrome c oxidase kit (Sigma). In brief, SK-N-SH cells were incubated with ABAD inhibitor and oligomer Aβ for 48 hours. After washing the cells twice with PBS, the cells were collected and concentration was determined by the Bradford method. A suitable volume of cells and enzyme solution was added to 475 μl assay buffer. The reaction was triggered by the addition of 25 μl freshly prepared ferrocytochrome C substrate solution into the cuvette. Changes in OD550 nm were recorded immediately with an Amersham Biosciences ULTROSPECT 3100 pro spectrophotometer.
To assess the effect of ABAD inhibitor on Aft-induced mitochondrial respiratory function, CcO activity was determined.

[3] = tested on: cells; test: MTT reduction assay (cell survival and toxicity); assay type: cell-based; conditions: 1, 10, 50, 100 μM, 48 to 66 hours
Experimental: The MTT (3-(4,5-dimethylthiazol-2-yl)-2,5-diphenyltetrazolium bromide) assay, which is widely used to measure cell proliferation and to screen for anticancer drugs, was used for assessing cell viability. Cells were treated with a range of ABAD compounds at 1, 10, 50, and 100 μM for 48 hours and then subjected to MTT reduction assay following the manufacture's instruction.
The effect of ABAD inhibitors on cell viability and toxicity was assessed using MTT reduction assay and trypan blue exclusion, which are widely used to assess cell survival and toxicity and to screen for drugs toxicity. Cells were treated with a range of concentrations of ABAD compound (4 and 8) at 1, 10, 50, 100 μM for 48 to 66 hours.

[4] = Solubility in solvents during LC method development; assay type: physicochemical
Experimental: During the development of a detection method for analytes 4, 8 and 15, multiple solvents were tested to find the optimal mobile phase. […] Acetonitrile was selected for better peak shape and compatibility with serum/brain protein precipitation. Compounds 8 and 15 were chosen as IS, because of their structural similarity. Selected reaction monitoring (SRM) acquisitions were used for sensitivity and extended dynamic range. The cone voltage and collision energy were optimized for 4, 8 and 15 and the IS by continuously infusing a mixture of the two. The optimum cone voltage was 30V.

[5] = tested on: mAPP mice; test: Morris water maze learning and memory in Alzheimer's Disease transgenic mice; assay type: in vivo; conditions: for latency to find the hidden platform: treated vs untreated AD mice; for number of crossings at the target location / percent of time spent in the target quadrant: treated vs untreated mAPP mice, probe trial
Experimental: Wild-type mice (Non Tg) were also administered Compound 8 (n=5) and vehicle (n=5). Each mouse was given four 60-second trials per day for six consecutive days to find the hidden platform in a Morris water maze.
Wild-type mice were also administered Compound 8 […]. Each mouse was given four 60-second trials per day for seven consecutive days to find the hidden platform in a Morris water maze.
Each mouse was given four 60-second trials per day for six consecutive days to find the hidden platform in a Morris water maze.
In addition, the effect of Compounds 4 and 8 on learning and memory of Alzheimer's Disease (AD) transgenic mice was evaluated. Six month and 9-14 month-old transgenic mice overexpressing a mutated form of the human amyloid precursor protein (mAPP mice) and their wild-type (non Tg) littermates were used in this study. […] Moreover, performance in a spatial MWM trial was evaluated using crossings over the platform area (an index of memory precision; Morris (1984) J. Neurosci. Methods 11:47-60), percent of time spent in target quadrant (an index of memory retrieval; Morris (1984) J. Neurosci. Methods 11:47-60), and swim paths.

[6] = tested on: hippocampal long-term potentiation; test: Hippocampal long-term potentiation (LTP) in slices from treated mice; assay type: in vivo; conditions: hippocampal slices from treated mAPP mice
Experimental: LTP was induced by theta-burst stimulation (TBS) 20 minutes after baseline recordings in hippocampal slices from Non-Tg mice treated with vehicle (n=9 slices from 3 mice), Non-Tg mice treated with Compound 8 (n=9 slices from 3 mice), mAPP mice treated with vehicle (n=8 slices from 3 mice), and mAPP mice treated with Compound 8 (n=8 slices from 3 mice). LTP is expressed as percentage potentiation of baseline (100%)(FIG. 5A).
LTP is expressed as percentage potentiation of baseline (100%)(FIG. 7A).
Synaptic failure in AD is largely reflected by impaired long-term synaptic plasticity in terms of long-term potentiation (LTP). […] Representative field excitatory post-synaptic potentials (fEPSP) waveforms are provided in FIGS. 5A and 7A and the residual potentiation from fEPSP slopes occurring over the last 5 minutes of LTP recording are provided in FIGS. 5B and 7B.

SMILES | calcium-mediated mitochondrial swelling [1] | mitochondrial swelling without calcium [1] | CcO activity, inhibitor alone [2] | CcO activity [2] | MTT reduction [3] | solubility in methanol or acetonitrile [4] | solubility in water [4] | latency to find the hidden platform [5] | number of crossings at the target location [5] | percent of time spent in the target quadrant [5] | hippocampal long-term potentiation (LTP) [6]
COc1ccc2nc(N[C@@H](c3ccc(O)cc3)P(=O)(OC)OC)sc2c1 (racemic) [Compound 8, Dimethyl ((4-hydroxyphenyl)((6-methoxybenzo[d]thiazol-2-yl)amino)methyl)phosphonate] | antagonized calcium-mediated mitochondrial swelling | did not affect mitochondrial swelling | had no effect on CcO activity | reversed the Aβ-mediated decrease of CcO activity | did not exhibit decreased MTT reduction | dissolved readily | dissolved partially | significantly shorter latency | significantly more | significantly more | impairments were diminished; also recorded: protective effects
COC(=O)c1cc([C@H](Nc2nc3ccc(OC)cc3s2)P(=O)(OC)OC)ccc1O [Compound 4, Methyl 5-((dimethoxyphosphoryl)((6-methoxybenzo[d]thiazol-2-yl)amino)methyl)-2-hydroxybenzoate] | antagonized calcium-mediated mitochondrial swelling | did not affect mitochondrial swelling | had no effect on CcO activity | reversed the Aβ-mediated decrease of CcO activity | did not exhibit decreased MTT reduction | dissolved readily | dissolved partially | significantly shorter latency | significantly more | significantly more | impairments were diminished; also recorded: protective effects
